According to patent publication US20050181066A1, “Novel use of guanylate cyclase activators for the treatment of respiratory insufficiency” (Altana Pharma AG, priority 2002, published 2005):
Entries after “also recorded” stand apart in the source; their conditions may differ.

Assays:
[1] = tested on: isolated rabbit lung; test: Isolated, bloodlessly perfused and ventilated rabbit lung with U46619-induced acute pulmonary hypertension; details: for effect on pulmonary arterial pressure (FIG. 1): U46619-induced pulmonary hypertension, NO 10, 50, 100, 200 ppm cumulatively by inhalation, YC-1 0.1 μM, enhancement at 50, 100, 200 ppm NO, n=6
Protocol: Model of the Isolated, Bloodlessly Perfused and Ventilated Rabbit Lung
The test animal was anaesthetized by injection of about 700 μl of a mixture of Ketanest and Rompun in the ratio 3:2. The spontaneous breathing of the animal was maintained with this initial anaesthesia. 1 000 I.U. of heparin per kg of bodyweight were injected through the venous access for anticoagulation. For the intubation, 7 ml of Xylocaine were injected into the subcutaneous tissue of the animal's neck. A tube was introduced into the trachea underneath the larynx and was used from this instant onwards to ventilate the animal with ambient air through the ventilating pump (breathing rate: […], tidal volume 30 ml). About 3 ml of the anaesthetic mixture were administered over a period of 15 min. The lungs were then removed by a standard technique; likewise dissection of the pulmonary artery and the ascending aorta.
To make it possible to remove the lung from the body's own perfusion without interruption, the pulmonary artery catheter of the perfusion system was, after incision of the right ventricle, advanced into the pulmonary artery and fixed there by means of the open ligature. After cutting off the apex of the heart and closing the ascending aorta, the lung was artificially perfused with Krebs-Henseleit buffer cooled to 4° C. (the cooling served to reduce metabolism) at 20 ml/min. The ambient air was replaced by a 5% CO2, 15% O2 and 80% N2 gas mixture.
The lung was dissected out of the thorax, and a connector was sutured into the left heart to allow the perfusion circulation to be completed. The lung was suspended on a weighing cell and the perfusion circulation was completed through the connector. The lung perfusate then flowed out through a pressure cascade. The temperature of the complete system was raised to 38° C. and the pressure recording started. In the system, the pulmonary artery pressure, the left ventricular pressure, the ventilation pressure and the weight were recorded continuously. […]

[2] = tested on: anaesthetized and ventilated rabbit with oleic acid-induced lung damage; test: Whole animal model of acute pulmonary hypertension with severe gas exchange impairment through oleic acid (MIGET, haemodynamics); format: in vivo; details: for effect on pulmonary arterial pressure (FIG. 2) / effect on systemic arterial pressure (FIG. 3): NO 10, 34, 70, 120, 200 ppm by inhalation, YC-1 5 mg infusion over 10 min; for effect on pulmonary arterial pressure (FIG. 2) / effect on systemic arterial pressure (FIG. 3) / effect on arterial oxygenation / oxygenation index (FIG. 6) / effect on intrapulmonary shunting (MIGET, FIG. 5) / effect on perfusion of normally ventilated areas of the lung (normal V/Q, MIGET, FIG. 7) / effect on pulmonary arterial pressure (FIG. 4): n=6; for effect on arterial oxygenation / oxygenation index (FIG. 6): 150 min after oleic acid injection; for intrapulmonary shunting (MIGET): oleic acid (OA) group 33±2 %; for arterial oxygenation: oleic acid (OA) group 123±13 mmHg; for effect on intrapulmonary shunting (MIGET, FIG. 5) / effect on perfusion of normally ventilated areas of the lung (normal V/Q, MIGET, FIG. 7) / effect on pulmonary arterial pressure (FIG. 4): YC-1 5 mg infusion 30-40 min after oleic acid
Protocol: Whole Animal Model of Acute Pulmonary Hypertension with Severe Gas Exchange Impairment Through Infusion of Oleic Acid
The test animals In the rabbit model were anaesthetized by injection of about 700 μl of a mixture of Ketanest and Rompun in the ratio 3:2. The spontaneous breathing of the animal was maintained with this initial anaesthesia. 1 000 I.U. of heparin per kg of bodyweight were injected for anticoagulation. For the intubation, 7 ml of Xylocaine were injected into the subcutaneous tissue of the animal's neck. A tube was introduced into the trachea underneath the larynx and was used from this instant onwards for ventilation of the animal through the ventilation pump (breathing rate: […], tidal volume 35 ml). The animal underwent standard ventilation with a 50% N2 and a 50% O2 gas mixture. 7 ml/h of the anaesthetic mixture were administered through a Perfusor, which led to a deep analgesia and relaxation of the animal. The left common carotid artery was ligated and punctured for measurement of the arterial pressure. […] Through this port, a 4F balloon catheter was placed in the right ventricle and the right ventricular pressure was recorded. The gas exchange was analysed by the multiple inert gas elimination technique (MIGET). The MIGET is based on elimination and retention of a plurality of inert gases. Central venous infusion thereof in dissolved form into the animal via the ear margin vein was therefore necessary. This infusion solution was prepared by introducing 250 ml of the perfusate without air bubbles into a gas-tight bag. 0.5 ml of liquid halothane was put into this bag through an injection plug. The bag was then filled with a test gas mixture (10% SF6 3.0, 20% cyclopropane 2.0 and 70% ethane 2.5) and the gases were dissolved in the perfusate. 0.15 ml of diethyl ether was injected, followed by 0.7 ml of acetone. This solution was infused continuously at 30 ml/h into the animal during the equilibration period after change of the perfusate. An equilibrium between retention and elimination of the gases was set up within a period of 30-40 min. After this time, 2.5 ml samples were taken simultaneously from the arterial and venous blood by gas-tight 50 ml glass syringes (B-D Yale, Becton, Dickinson & Co, USA). The arterial and the venous sample was then weighed, blanketed with 15 ml of nitrogen gas (ECD grade) and incubated at 38° C. in a shaking water bath (135 min^−1). During this time, an equilibrium, depending on the solubility of the gas, was set up between the gaseous and liquid phase. After the equilibration time had elapsed, the total volume of the syringe was determined and the supernatant gas was transferred into an air-tight 30 ml glass syringe (B-D Yale, Becton, Dickinson & Co, USA) preheated to 38° C. The latter was stored at 38° C. and used for gas chromatographic analysis. Immediately after removal of the arterial and venous perfusate, a sample of the expired air from the isolated lung was taken by a preheated 30 ml glass syringe on an expiratory gas mixing box. This gaseous sample was analysed immediately in a gas chromatograph. The gases were analysed by a computer-assisted calculation through which essentially the following parameters were calculated: shunting (perfusion, unventilated regions of the lung), normal V/Q (perfusion in normally ventilated regions of the lung).
Besides the MIGET data, the following haemodynamic parameters were determined: • pulmonary arterial pressure • systemic arterial pressure • arterial oxygen partial pressure (pO2)
Catheterization of the animal was followed by injection of 50 μg of oleic acid (OA) into the pulmonary artery. The pulmonary arterial pressure rose after this injection from 11-13 mmHg to a stable plateau of 17-18 mmHg. This rise in the pulmonary arterial pressure was accompanied by severe gas exchange impairment essentially characterized by a fall in the arterial oxygenation and a rise in the shunt perfusion (measured by the MIGET). […]

[3] = tested on: ventilated patients suffering from acute adult respiratory distress syndrome (ARDS); details: inhaled; cited from earlier work
[4] = tested on: patients with post-traumatic pulmonary dysfunction; details: infusion; 11 patients; cited from earlier work
[5] = tested on: rabbit model of acute pulmonary hypertension; details: cited from earlier work; for effect on pulmonary hypertension / pulmonary and systemic vasodilatation: systemic (intravenous) administration, in the combination a dose of dipyridamole with no activity per se
[6] = tested on: patients with bronchial asthma; details: intravenous administration; cited from earlier work
[7] = NO 100 ppm inhaled 30-150 min, YC-1 5 mg infusion 30-40 min

[N]=O [NO, nitric oxide]
effect on pulmonary arterial pressure (FIG. 1) [1]: dose-dependent reduction in the pulmonary arterial pressure
effect on pulmonary arterial pressure (FIG. 2) ([2]; 50 μg oleic acid): dose-dependent reduction in the pulmonary arterial pressure
effect on systemic arterial pressure (FIG. 3) ([2]; 50 μg oleic acid): remained unchanged; also recorded: did not lead to a dose-dependent reduction in the systemic arterial pressure
effect on arterial oxygenation / oxygenation index (FIG. 6) [2, 7]: significant increase in the arterial oxygenation
pulmonary arterial pressure ([2]; NO 100 ppm inhaled 30-150 min, YC-1 5 mg infusion 30-40 min, oleic acid (OA) group 17.8±1.6 mmHg): 14.5±1.8 mmHg
intrapulmonary shunting (MIGET) [2, 7]: 23±3%
arterial oxygenation [2, 7]: 234±21 mmHg
effect on intrapulmonary shunting (MIGET, FIG. 5) ([2]; NO 100 ppm inhaled 30-150 min): reduction in the intrapulmonary shunting
effect on perfusion of normally ventilated areas of the lung (normal V/Q, MIGET, FIG. 7) ([2]; NO 100 ppm inhaled 30-150 min): significant increase in the perfusion of normally ventilated areas of the lung
effect on pulmonary arterial pressure (FIG. 4) ([2]; NO 100 ppm inhaled 30-150 min): reduction in the pulmonary arterial pressure
effect on gas exchange [3]: improvement in gas exchange

O=[N+]([O-])OCC(CO[N+](=O)[O-])O[N+](=O)[O-] [Ng, 1,2,3-propanetriyl trinitrate]
effect on acute pulmonary hypertension [4]: reduction in the acute pulmonary hypertension
effect on arterial oxygen content [4]: deterioration in the arterial oxygen content

CCCCC[C@H](O)/C=C/[C@@H]1[C@@H](C/C=C\CCCC(=O)O)[C@H]2CO[C@@H]1C2 [U46619]
pulmonary arterial pressure raised by U46619 ([1]; continuous intravascular 70 to 160 pmol/kg min U46619, raised from 6-8 mmHg): 33-35 mmHg

OCc1ccc(-c2nn(Cc3ccccc3)c3ccccc23)o1 [YC-1, 3-(5′-Hydroxymethyl-2′-furyl)-1-benzyl indazole]
effect on pulmonary arterial pressure (FIG. 1) [1]: no intrinsic effect on the pulmonary arterial pressure
effect on pulmonary arterial pressure (FIG. 2) ([2]; 50 μg oleic acid): no effect on the measured parameters
effect on systemic arterial pressure (FIG. 3) ([2]; 50 μg oleic acid): no effect on the measured parameters
effect on arterial oxygenation / oxygenation index (FIG. 6) [2, 7]: significant effect on the oxygenation index
intrapulmonary shunting (MIGET) [2, 7]: 21±4%
arterial oxygenation [2, 7]: 215±8 mmHg
effect on intrapulmonary shunting (MIGET, FIG. 5) ([2]; NO 100 ppm inhaled 30-150 min): no significant effect on intrapulmonary shunting
effect on perfusion of normally ventilated areas of the lung (normal V/Q, MIGET, FIG. 7) ([2]; NO 100 ppm inhaled 30-150 min): no significant effect on the perfusion of normally ventilated areas of the lung
effect on pulmonary arterial pressure (FIG. 4) ([2]; NO 100 ppm inhaled 30-150 min): no effect on the pulmonary arterial pressure

OCCN(CCO)c1nc(N2CCCCC2)c2nc(N(CCO)CCO)nc(N3CCCCC3)c2n1 [dipyridamole]
effect on pulmonary hypertension / pulmonary and systemic vasodilatation [5]: dose-dependent reduction in the pulmonary and systemic vasodilatation

CCCCCCCC/C=C\CCCCCCCC(=O)O [oleic acid]
intrapulmonary shunting after oleic acid injection ([2]; 50 μg oleic acid): 30-35%
pulmonary arterial pressure plateau after oleic acid injection ([2]; 50 μg oleic acid into the pulmonary artery, rise from 11-13 mmHg): 17-18 mmHg

urodilatin
effect on ventilatory parameters [6]: improvement in the ventilatory parameters
effect on pressure in the systemic circulation ([5]; intravenous administration): reduces the pressure in the systemic circulation to the same extent
effect on pulmonary hypertension / pulmonary and systemic vasodilatation [5]: dose-dependent reduction in the pulmonary and systemic vasodilatation; also recorded: marked reduction in pulmonary hypertension
